Results taken from patent US20220402980A1, “CHROMOGRANIN A-DERIVED PEPTIDES AND USES THEREOF” (OSPEDALE SAN RAFFAELE S.R.L., priority 2019, published 2022).
Like-named read-outs stand apart in the source and are kept apart here. Each block holds one compound with its values, some of them ahead of it. Where a SMILES comes first, the peptide text is derived from it. Bridges are numbered along the chain shown (N, C = ends). Triazole bridges read from a SMILES are 1,4-linked. [ ]: non-standard residue; d: D form. Lys(N3) = [N-]=[N+]=NCCCC[C@H](N)C(=O)O; Pra = C#CC[C@H](N)C(=O)O

Assays:
BxPC-3 cells = test: Binding of peptide-IRDye conjugates to cultured BxPC-3 cells; type: cell-based, human; conditions: BxPC-3 cells; 5a-IRDye 4 nM
Protocol: (§1) B) Binding of the indicated peptide-IRDye conjugates to the various cell lines. Various amounts of conjugates were added to cell monolayers (grown in 96-well microtiter plates) and incubated for 1 h at 37° C., 5% CO2 (see Experimental section). After washing, bound fluorescence was measured using an Odyssey CLx (LI-COR) scanner. A representative image of the scanned plate and binding quantification are reported. Mean ±SE of quadruplicate wells.
(§2) Various amounts of unlabeled peptides were mixed 5a-IRDye (4 nM) and added to the cells. After 1 h, the plates were washed, and the bound fluorescence was quantified as described above (left panels).
(§3) The binding of peptide-IRDye conjugates to BxPC-3, 5637, HUVECs, 4T1, K8484 and DT6606 cells was analyzed as follows. The cells were grown in 96-well clear-bottom black microtiterplates (Corning® cat. 3603, 2-3x10^4 cells/well, plated 48 h before the experiment). After washing twice with 0.9% sodium chloride solution, the cells were incubated with 25 mM Hepes buffer, pH 7.4, containing 150 mM sodium chloride, 1 mM magnesium chloride, 1 mM manganese chloride and 1% BSA (binding buffer) for 5 min. Peptide-IRDye conjugates (0.013-40 nM in binding buffer) were then added to the cells and left to incubate for 1 h at 37° C., 5% CO2. After three washings with binding buffer (5 min each, 200 al/well), the cells were fixed with PBS containing 2% paraformaldehyde and 3% sucrose for 15 min at room temperature. Binding of conjugates to cells was quantified by scanning the plate (filled with PBS, 100 al/well) with the Odyssey CLx (LI-COR) using the following settings: scan intensity, 8.5; scan focus offset 4; scan quality, highest; channel, 800; resolution, 169 pm. Then, the plates were incubated with 5 μg/ml of 4′,6-diamidino-2-phenylindole (DAPI) for 15 min, washed twice with PBS and read with a VICTOR3 plate reader (Perkin Elmer, Waltham, Mass., USA) to quantify the cell number in each well, using the following filters: excitation, 355±40 nm; emission, 460±25 nm (acquisition,1 s).

5637 cells = test: Binding of peptide-IRDye conjugates to cultured 5637 cells; type: cell-based, human; conditions: 5637 cells; 5a-IRDye 4 nM
Protocol: as §1, §2, §3

in vivo = conditions: mouse, iv, 3 MBq/animal, total radioactivity
[1] = tested on: human bladder carcinoma 5637 cells; test: 5637 cell viability (PrestoBlue); type: cell-based; conditions: 48 h
Protocol: FIG. 12. Effect of peptides 4 and 5 on human bladder carcinoma 5637 cell viability. 5637 cells were seeded in a 96-well microtiterplate (20,000 cell/well) and cultured for 16 h at 37° C., 5% CO2. The day after the indicated doses of peptide 4 and 5 were added to the cells and left to incubate for additionally 48 h at 37° C., 5% CO2. Cell viability was assessed using the PrestoBlue* cell viability reagent (ThermoFisher) according to the manufacturer's instructions. Viability of the treated cells was normalized to that of untreated cells and is reported as a percentage (mean±SE of triplicate wells).

αvβ6 = target: T1, αvβ6 (Homo sapiens, UniProt P06756+P18564); test: Competitive integrin binding assay (isoDGR/STV-HRP probe), αvβ6-coated plates
T1 construct: recombinant human αvβ6 extracellular domain (R&D Systems); purchased R&D Systems (Minneapolis, Minn.)
Protocol: (§4) Peptide binding was measured by a competitive binding assay using as integrin probe a complex made by a N-terminal acetylated isoDGR peptide biotinylated at the E-amino group of the lysine, acetyl-Ciso[…]-bio (SEQ ID No. 29), and a streptavidin-peroxidase conjugate (called isoDGR/STV-HRP)[43].
(§5) Each mixture was then added to integrin-coated wells and left to incubate for 2 h at room temperature. After washing with 25 mM Tris-HCl, pH 7.4, containing 150 mM sodium chloride, 1 mM magnesium chloride, 1 mM manganese chloride, each well was filled with a chromogenic solution (o-phenylenediamine dihydrochloride) and left to incubate for 30 min at room temperature. The chromogenic reaction was stopped by adding 1 N sulfuric acid. The absorbance at 490 nm was then measured using a microtiterplate reader. Ki values were calculated by non-linear regression analysis of competitive binding data using the “One site - Fit Ki” equation of the GraphPad Prism Software using the Kd values of the probe indicated above.

[2] = Peptide stability in mouse liver microsomal preparations (RP-HPLC); type: in vitro ADME; conditions: C57BL/6, mouse, liver microsomes; 37° C.; read-out: t1/2 in mouse liver microsomes (converted)
Protocol: FIG. 14. Stability of peptides 4 and 5 in murine liver microsomes as determined by RP-HPLC. a) RP-HPLC of 4 and 5 after incubation at 37° C. in murine liver microsomes. Peak 1 corresponds to 4 and 5. The peptides were added to murine liver microsomes (454 - μg/ml, final concentration) and incubated for the indicated time, diluted with an equal volume of 90% acetonitrile containing 0.1% TFA and analyzed onto a LiChrospher C18 column (16 ag). No peptide indicates liver microsome aliquot without the peptide. b) Quantification of Peak 1 area (left panel) and height (right panel) of the indicated peptides. The corresponding half-life is also shown.
The stability of compound 4 and 5 in mouse liver microsomal preparations was assessed by HPLC analysis. To this aim microsomes were prepared as follows: 11 g of mouse liver tissue (C57BL/6 mice) was homogenized in cold PBS supplemented with 0.25 M sucrose (3 ml/g of tissue) using a Potter-Elvehjem homogenizer (10 strokes), followed by additional homogenization using a rotor-stator homogenizer (40 sec). The homogenate was filtered through 70 pm cell-strainers, centrifuged three times to remove insoluble materials (500 x g, 5 min; 3000 x g, 30 min; 110000 x g, 90 min, 4° C.). […] Protein concentration was measured by measuring the absorbance at 280 nm with a NanoDrop spectrophotometer (Thermo Scientific). […]

αvβ8 = αvβ8 (Homo sapiens, UniProt P06756+P26012); test: Competitive integrin binding assay (isoDGR/STV-HRP probe), αvβ8-coated plates
Protocol: as §4, §5

Compound: CC[C@H](C)[C@H](NC(=O)[C@H](CCCNC(=N)N)NC(=O)[C@H](CC(C)C)NC(=O)[C@H](CC(=O)O)NC(=O)CNC(=O)[C@H](CCCNC(=N)N)NC(=O)[C@H](CC(C)C)NC(=O)[C@@H](NC(=O)[C@H](CCC(=O)O)NC(=O)[C@H](Cc1ccccc1)NC(=O)[C@@H](N)CS)[C@@H](C)O)C(=O)N[C@@H](CC(C)C)C(=O)N[C@@H](CO)C(=O)N[C@H](C(=O)N[C@@H](CC(C)C)C(=O)N[C@@H](CCCNC(=N)N)C(=O)N[C@H]1Cc2cn(nn2)CCCC[C@@H](C(=O)N[C@@H](CCCCN)C(=O)N[C@@H](CCC(=O)O)C(=O)N[C@@H](CC(C)C)C(=O)N[C@@H](CCC(N)=O)C(=O)N[C@@H](CC(=O)O)C(N)=O)NC(=O)[C@H](CC(C)C)NC(=O)[C@H](CC(N)=O)NC(=O)[C@H](CCC(N)=O)NC1=O)[C@@H](C)CC [peptide 5a, CFETLRGDLRILSILRX1QNLX2KELQD]
inhibition of 5a-IRDye binding by excess of free peptide (BxPC-3 cells): significantly inhibited
inhibition of 5a-IRDye binding by excess of free peptide (5637 cells): significantly inhibited

Compound: CC[C@H](C)[C@H](NC(=O)[C@H](CCCNC(=N)N)NC(=O)[C@H](CC(C)C)NC(=O)[C@H](CC(=O)O)NC(=O)CNC(=O)[C@H](CCCNC(=N)N)NC(=O)[C@H](CC(C)C)NC(=O)[C@@H](NC(=O)[C@H](CCC(=O)O)NC(=O)[C@H](Cc1ccccc1)NC(=O)[C@@H](N)CSC1CC(=O)N(CCNC(=O)CN2CCN(CC(=O)O)CCN(CC(=O)O)CC2)C1=O)[C@@H](C)O)C(=O)N[C@@H](CC(C)C)C(=O)N[C@@H](CO)C(=O)N[C@H](C(=O)N[C@@H](CC(C)C)C(=O)N[C@@H](CCCNC(=N)N)C(=O)N[C@H]1Cc2cn(nn2)CCCC[C@@H](C(=O)N[C@@H](CCCCN)C(=O)N[C@@H](CCC(=O)O)C(=O)N[C@@H](CC(C)C)C(=O)N[C@@H](CCC(N)=O)C(=O)N[C@@H](CC(=O)O)C(N)=O)NC(=O)[C@H](CC(C)C)NC(=O)[C@H](CC(N)=O)NC(=O)[C@H](CCC(N)=O)NC1=O)[C@@H](C)CC (some centres unmarked) [1^8F-NOTA-5a]
tissue uptake at 2 h (in vivo; accumulation in intestine, femur, liver and stomach): ~2 %ID/g
tissue uptake at 2 h (in vivo; accumulation in the lungs): 1.2 %ID/g
tissue uptake at 2 h (in vivo; radiotracer levels in the kidneys): ~80 %ID/g
tissue uptake at 2 h (in vivo; uptake in brain, heart, spleen, blood, muscle): < 0.5 %ID/g

Compound: CC[C@H](C)[C@H](NC(=O)[C@H](CCCNC(=N)N)NC(=O)[C@H](CC(C)C)NC(=O)[C@H](CC(=O)O)NC(=O)CNC(=O)[C@H](CCCNC(=N)N)NC(=O)[C@H](CC(C)C)NC(=O)[C@@H](NC(=O)[C@H](CCC(=O)O)NC(=O)[C@H](Cc1ccccc1)NC(C)=O)[C@@H](C)O)C(=O)N[C@@H](CC(C)C)C(=O)N[C@@H](CO)C(=O)N[C@H](C(=O)N[C@@H](CC(C)C)C(=O)N[C@@H](CCCNC(=N)N)C(=O)N[C@H]1Cc2cn(nn2)CCCC[C@@H](C(=O)N[C@@H](CCCCN)C(=O)N[C@@H](CCC(=O)O)C(=O)N[C@@H](CC(C)C)C(=O)N[C@@H](CCC(N)=O)C(=O)N[C@@H](CC(=O)O)C(N)=O)NC(=O)[C@H](CC(C)C)NC(=O)[C@H](CC(N)=O)NC(=O)[C@H](CCC(N)=O)NC1=O)[C@@H](C)CC [peptide 5, FETLRGDLRILSILRX1QNLX2KELQD] (Ac-FETLRGDLRILSILR[Pra]QNL[Lys(N3)]KELQD-NH2; triazole 16-20)
cytotoxicity in vitro [1]: not cytotoxic
Ki (αvβ6; Table 3a and text, ± standard error of the mean, read-out: Ki αvβ6): 0.6 ± 0.1 nM
half-life at 454 μg/ml [2]: 4.3 h
Ki (αvβ8; Table 3a and text, ± standard error of the mean, read-out: Ki αvβ8): 3.2 ± 1.2 nM

Ki (αvβ6; Table 3b, mean ± SE, read-out: Binding affinity for αvβ6 Ki): > 50000 nM
Ki (αvβ8; Table 3b, mean ± SE, read-out: Binding affinity for αvβ8 Ki): > 50000 nM
Compound: CC[C@H](C)[C@H](NC(=O)[C@H](CCCNC(=N)N)NC(=O)[C@H](CCC(=O)O)NC(=O)[C@H](CCC(=O)O)NC(=O)CNC(=O)[C@H](CCCNC(=N)N)NC(=O)[C@H](CC(C)C)NC(=O)[C@@H](NC(=O)[C@H](CCC(=O)O)NC(=O)[C@H](Cc1ccccc1)NC(=O)[C@@H](N)CS)[C@@H](C)O)C(=O)N[C@@H](CC(C)C)C(=O)N[C@@H](CO)C(=O)N[C@H](C(=O)N[C@@H](CC(C)C)C(=O)N[C@@H](CCCNC(=N)N)C(=O)N[C@@H](Cc1c[nH]cn1)C(=O)N[C@@H](CCC(N)=O)C(=O)N[C@@H](CC(N)=O)C(=O)N[C@@H](CC(C)C)C(=O)N[C@@H](CC(C)C)C(=O)N[C@@H](CCCCN)C(=O)N[C@@H](CCC(=O)O)C(=O)N[C@@H](CC(C)C)C(=O)N[C@@H](CCC(N)=O)C(=O)N[C@@H](CC(=O)O)C(=O)O)[C@@H](C)CC [peptide 2a, reference compound] (H-CFETLRGEERILSILRHQNLLKELQD-OH; N-terminus and C-terminus assumed)
inhibition of 5a-IRDye binding by excess of free peptide (BxPC-3 cells): not
inhibition of 5a-IRDye binding by excess of free peptide (5637 cells): not
